# System: spared nerve injury (SNI) model
# Test: Spared nerve injury (SNI) model of neuropathic pain, mechanical withdrawal threshold (von Frey, up-down method) after AAV.hSYN-α7-nAChR/GlyRα1 injection
# Format: in vivo, rat
# Conditions: for reversal of mechanical hypersensitivity: single IP injection
# From the text: Eight expression cassettes are constructed using standard molecular biology techniques. All contain a human synapsin-1 (hSYN) promoter linked to engineered chimeric receptors comprising a ligand binding domain of α7-nAChR and a Cys-loop domain and ion pore domain of GlyRα1. Their design is as follows:
# These cassettes are subcloned into AAV bacmids, purified, transfected into Sf9 insect cells to produce recombinant bacuvlovirus, and then amplified. Sf9 cells are double infected using the amplified recombinant baculovirus containing the hSYN-α7-nAChR/GlyRα1 cassettes and another recombinant baculovirus containing the Rep and AAV6(Y705+731F+T492V) Cap genes to produce recombinant AAV vectors. The viral vectors are purified, viral titer determined using qPCR, and SDS-PAGE used to verify the purity of AAV vectors.
# To produce mechanical hypersensitivity in a model that mimics a neuropathic pain condition, the spared nerve injury (SNI) model (a validated model of mechanical allodynia) is used (Shields et al., 2003, The Journal of Pain, 4, 465-470). This model is produced by the sectioning of the common peroneal and the sural nerves and isolating the tibial branch. Mechanical withdrawal threshold is assessed by placing rats on an elevated wire-mesh grid and stimulating the plantar surface of the hind paw with von Frey filaments.
# A dorsal hemilaminectomy is made at the level of the lumbar enlargement to expose two segments (about 1.5-2 mm) of lumbar spinal cord, after which the dura mater is incised and reflected. The viral solution is loaded into a glass micropipette (prefilled with mineral oil). The micropipette is connected to a manual micro-injector mounted on a stereotactic apparatus. The viral solution is targeted to the dorsal horn (left side). Along the rostro-caudal axis within the exposed region, 6 injections of 240 nl each are performed, in an equidistant linear fashion. After each injection, 1 min of resting time is observed and then the muscle layer is sutured, the skin closed with staples, and the animals were allowed to recover with heated-pad before they were returned to their home cages. Animals are perfused for histological analysis after the last behavior test.
# The injection is performed with a borosilicate glass capillary (0.78/1 mm internal/external diameters) pulled to a fine point, attached by polyethylene tubing (0.4/0.8 mm internal/external diameters) to a syringe mounted in a microinjection pump. The needle is mounted on an extended arm of a stereotaxic frame swung to the outside (used to hold and manipulate the needle only). Tubing, syringe, and needle are all filled with water. One microliter air is taken up into the needle followed by 3 μL of the viral vector solution. The needle is loaded separately with this volume for each injection. Animals are anesthetized prior to surgery. Following an incision along the dorsal midline, the L4 and L5 DRG are exposed by removal of the lateral processes of the vertebrae. The epineurium lying over the DRG is opened, and the glass needle inserted into the ganglion, to a depth of 400 μm from the surface of the exposed ganglion. After a 3-minute delay to allow sealing of the tissue around the glass capillary tip, 1.1 μL virus solution was injected at a rate of 0.2 μL/minute. After a further delay of 2 minutes, the needle is removed. The L4 ganglion is injected first followed by the L5 ganglion. The muscles overlying the spinal cord are loosely sutured together with a 5-0 suture and the wound closed. Animals are allowed to recover at 37° C. and received postoperative analgesia.
# Rats are first anesthetized and then placed vertically with their head fixed in a stereotaxic frame. An incision is made in the base of the neck to expose the groove in the nuchal crest. An incision is made (1-2 mm) in the cisternal membrane to a depth such that cerebrospinal fluid leaks out. […]
smiles,measurement,setting,value
c1cnc2c(c1)C[C@@]1(CN3CCC1CC3)O2 [AZD-0328],duration of the reversal of mechanical hypersensitivity,after single IP injection,at least 2 days
same,effect on mechanical threshold in the absence of vector,contralateral side,no measurable effect
same,mechanical thresholds after second IP injection,"injected again on the third day, followed for 48 hours",recovery to non-injury baseline thresholds
same,reversal of mechanical hypersensitivity,"high dose of ligand, all rats (Chimera 1-8)",complete reversal
same,reversal of mechanical hypersensitivity,"low dose, rats receiving Chimera 1, 2, 4, 5, 6 and 8",complete reversal
same,reversal of mechanical hypersensitivity,"low dose, rats receiving Chimera 3 and 7",partial reversal
